Entries after “also recorded” stand apart in the source; their conditions may differ.
Tests used:
[1] = system: D-aminoacylase derived from Streptomyces thermonitrificans; assay: Effect of inhibitors against D-aminoacylase; format: biochemical; conditions: for Effect on enzyme activity (in words): SH reagents, 1 mM
Experimental: (§1) The measurement of the enzyme activity was proceeded according to the TNBS method (Tokuyama, S., Hatano, K., and Takahashi, T., Biosci.Biotech.Biochem. 58:24(1994)). That is, the sample containing the amino acid was added to 0.5 ml of solution (C) (0.1 M Na2B4O7) to give a total volume of 1.0 ml. […] of 0.11 M TNBS solution was added with stirring immediately. The absorbance at 420 nm was measured after 5 minutes.
(§2) Various metal salt and various enzyme inhibitors were added to a concentration of 1 mM to the enzyme reaction, and measurement of the enzyme reaction was performed. The enzyme reaction was conducted in 50 mM Tris/HCl (pH 7.5) buffer (total volume of 500 μl). For the metal salt added reaction, 1 mM of each metal salt or EDTA was added to the standard reaction composition solution without the enzyme and was preincubated at 30° C. for 5 minutes, then enzyme was added to react at 30° C. for 60 minutes. For the enzyme inhibitor added reaction, the standard reaction solution without the substrate was preincubated at 5 minutes, then after adding 1 mM of each inhibitor […] the substrate was added, and the enzyme reaction was performed at 30° C. for 100 minutes. The relative activity was calculated taking activity of enzyme actions without addition of inhibitors as 100%.

[2] = system: D-aminoacylase derived from Streptomyces thermonitrificans; assay: Substrate specificity of D-aminoacylase; format: biochemical; conditions: for Catalysis of the reaction with the substrate (in words): N-acetyl amino acid substrates; for Activity / Relative activity: substrate 20 mM; for Activity: 1 mM cobalt chloride, 50 mM Tris/HCl pH 7.5, 30° C., 60 minutes; for Relative activity: activity against N-acetyl-D-methionine taken as 100%
Experimental: The activity of the D-aminoacylase of the present invention can be tested by the following procedure. For example, an enzyme solution (100 μl) is mixed and incubated with 50 mM Tris-HCl (pH 7.5) buffer (total volume: 500 μl) containing 20 mM substrate (various N-acetyl-D-amino acids) at 30° C. for 60 minutes. By measuring the amounts of amino acid synthesized by this reaction, enzymatic activities for respective substrates can be compared with each other. Assay for amino acid is performed by the TNBS (trinitrobenzenesulfonic acid) method or the HPLC method.
as §1
D-methionine was measured colorimetrically using L-methionine as a standard, and the amount of enzyme-producing 1 μmol of D-methionine in 1 minute at 30° C. was determined 1 unit.
The substrate specificity of the enzyme of the present invention was compared taking the enzyme activity against N-acetyl-D-methionine as 100%. N-acetyl-D-valine, N-acetyl-D-phenylalanine, N-acetyl-D-leucine, N-acetyl-D-tryptophan, N-acetvl-D-alanine N-acetyl-L-methionine, N-acetyl-L-leucine, and N-acetyl-L-valine was used as the substrate for comparison. The enzyme activity was measured in a standard reaction solution (total volume of 500 μl containing 100 μl of enzyme solution, and 400 μl of 50 mM Tris/HCl (pH 7.5) containing 20 mM of each substrate and 1 mM cobalt chloride at 30° C. for 60 minutes. The substrate specificity for N-acetyls of D-methionine, D-leucine, D-valine, D-tryptophan, D-alanine and D-phenylalanine is depicted in Table 2.

[3] = system: D-aminoacylase derived from Streptomyces thermonitrificans; assay: Effect of metal salt for D-aminoacylase; format: biochemical; conditions: for Effect on enzyme activity (in words): 1 mM metal ion or EDTA
Experimental: as §1, §2

[4] = in vivo; cited from earlier work
[5] = 1 mM reagent, 50 mM Tris/HCl pH 7.5, 30° C., 100 minutes
[6] = 1 mM reagent, no addition = 100%
[7] = 1 mM metal salt or EDTA, 50 mM Tris/HCl pH 7.5, 30° C., 60 minutes
[8] = 1 mM metal salt or EDTA, no addition = 100%

`O=C(O)CI` [Monoiodoacetic acid] gave a Relative activity [1] of 84% and an Activity ([1]; pH 7.5) of 37.9 mU/ml.
For `CC(=O)N[C@H](Cc1c[nH]c2ccccc12)C(=O)O` [N-Ac-D-Trp, N-acetyl-D-tryptophan], the “Catalysis of the reaction with the substrate (in words)” value (“Catalysis of the reaction” for short) [2] was “efficiently catalyzes; also recorded: catalyze especially well”, the Activity [2] was 48.4 mU/ml and the Relative activity [2] was 105%.
Molecule `O[C@@H](CS)[C@@H](O)CS` [DTT] has an Activity [1, 5] of 34.8 mU/ml and a Relative activity [1, 6] of 76%.
With `[Cl][Fe]([Cl])[Cl]` [FeCl3] the Activity [3, 7] was 22.0 mU/ml and the Relative activity [3, 8] was 68%.
Molecule `[I-].[K+]` [KI] has an Activity [1, 5] of 11.3 mU/ml and a Relative activity [1, 6] of 24%.
In the case of `O=C(O)CN(CCN(CC(=O)O)CC(=O)O)CC(=O)O` [EDTA], the “Effect on enzyme activity (in words)” value [3] is reported as “inhibited”, the Activity [3, 7] is reported as 9.4 mU/ml and the Relative activity [3, 8] is reported as 29%.
Molecule `[Cl-].[K+]` [KCl] has an Activity [3, 7] of 30.9 mU/ml and a Relative activity [3, 8] of 93%.
In the case of `[Cl][Co][Cl]` [CoCl2, cobalt chloride], the “Effect on enzyme activity (in words)” value [3] is reported as “increased”, the Activity [3, 7] is reported as 54.4 mU/ml and the Relative activity [3, 8] is reported as 168%.
With `[Cl][Ni][Cl]` [NiCl2] the Activity [3, 7] was 15.9 mU/ml and the Relative activity [3, 8] was 51%.
In the case of `O=S(=O)([O-])[O-].O=S(=O)([O-])[O-].O=S(=O)([O-])[O-].[Al+3].[Al+3]` [Al2(SO4)2], the Activity [3, 7] is reported as 25.2 mU/ml and the Relative activity [3, 8] is reported as 90%.
For `CC(=O)N[C@H](C(=O)O)C(C)C` [N-Ac-L-Val, N-acetyl-L-valine], the “Catalysis of the reaction” value [2] was “didn't catalyze; also recorded: substantially no catalytic activity”, the Activity [2] was 0 mU/ml and the Relative activity [2] was 0%.
With `O=S(=O)(F)Cc1ccccc1` [Phenylmethylsulfonyl fluoride] the Activity [1, 5] was 29.5 mU/ml and the Relative activity [1, 6] was 70%.
With `[Cl-].[Cl-].[Mg+2]` [MgCl2] the Activity [3, 7] was 35.2 mU/ml and the Relative activity [3, 8] was 109%.
`[Cl-].[Na+]` [NaCl] gave a Relative activity [3] of 103% and an Activity ([3]; pH 7.5) of 33.1 mU/ml.
Molecule `O=C(NNc1ccccc1)NNc1ccccc1` [1,5-Diphenylcarbonylhydrazide] has an Activity [1, 5] of 40.5 mU/ml and a Relative activity [1, 6] of 89%.
With `CC(=O)N[C@@H](Cc1ccccc1)C(=O)O` [N-Ac-L-Phe, N-acetyl-L-phenylalanine] the “Catalysis of the reaction” value [2] was “didn't catalyze; also recorded: substantially no catalytic activity”, the Activity [2] was 0 mU/ml and the Relative activity [2] was 0%.
`c1ccc(-c2ccccn2)nc1` [2,2′-Bipyridyl] showed an Activity [1, 5] of 21.9 mU/ml and a Relative activity [1, 6] of 49%.
For `CC(=O)N[C@@H](C(=O)O)C(C)C` [N-Ac-D-Val, N-acetyl-D-valine], the “Catalysis of the reaction” value [2] was “catalyzes; also recorded: catalytic actions”, the Activity [2] was 14.7 mU/ml and the Relative activity [2] was 40%.
For `[Cl][Cu][Cl]` [CuCl2], the “Effect on enzyme activity (in words)” value [3] was “markedly inhibited”, the Activity [3, 7] was 1.0 mU/ml and the Relative activity [3, 8] was 3%.
In the case of `NO` [Hydroxylammonium chloride], the Relative activity [1] is reported as 102% and the Activity [1, 5] is reported as 46.5 mU/ml.
Molecule `[Cl-].[Cl-].[Zn+2]` [ZnCl2] has an Activity [3, 7] of 22.2 mU/ml and a Relative activity [3, 8] of 68%.
For `[Cl][Sn][Cl]` [SnCl2], the Activity [3, 7] was 32.8 mU/ml and the Relative activity [3, 8] was 102%.
`[Ba+2].[Cl-].[Cl-]` [BaCl2] gave an Activity [3, 7] of 30.6 mU/ml and a Relative activity [3, 8] of 95%.
With `CSCC[C@@H](NC(C)=O)C(=O)O` [N-Ac-D-Met, N-acetyl-D-methionine] the “Catalysis of the reaction” value [2] was “efficiently catalyzes; also recorded: catalyze especially well”, the Activity [2] was 40.6 mU/ml and the Relative activity [2] was 100%.
Work on `[F-].[Na+]` [NaF] yielded an Activity [1, 5] of 45.2 mU/ml and a Relative activity [1, 6] of 99%.
With `CC(=O)N[C@H](C)C(=O)O` [N-Ac-D-Ala, N-acetyl-D-alanine] the “Catalysis of the reaction” value [2] was “catalyzes; also recorded: catalytic actions”, the Activity [2] was 16.9 mU/ml and the Relative activity [2] was 40%.
In the case of `CC(=O)N[C@H](Cc1ccccc1)C(=O)O` [N-Ac-D-Phe, N-acetyl-D-phenylalanine], the “Catalysis of the reaction” value [2] is reported as “efficiently catalyzes; also recorded: catalyze especially well”, the Activity [2] is reported as 62.2 mU/ml and the Relative activity [2] is reported as 144%.
With `CSCC[C@H](NC(C)=O)C(=O)O` [N-Ac-L-Met, N-acetyl-L-methionine] the “Catalysis of the reaction” value [2] was “didn't catalyze; also recorded: substantially no catalytic activity”, the Activity [2] was 0 mU/ml and the Relative activity [2] was 0%.
For `O=C1CCC(N2C(=O)c3ccccc3C2=O)C(=O)N1` [D(R)-form thalidomide, thalidomide], the Teratogenic activity [4] is listed as “no teratogenic activity”.
In the case of `CC(=O)N[C@H](CC(C)C)C(=O)O` [N-Ac-D-Leu, N-acetyl-D-leucine], the “Catalysis of the reaction” value [2] is reported as “catalyzes; also recorded: catalytic actions”, the Activity [2] is reported as 8.93 mU/ml and the Relative activity [2] is reported as 21%.
In the case of `[Cl][Fe][Cl]` [FeCl2], the Activity [3, 7] is reported as 20.4 mU/ml and the Relative activity [3, 8] is reported as 63%.
In the case of `[Cl][Mn][Cl]` [MnCl2], the Activity [3, 7] is reported as 21.0 mU/ml and the Relative activity [3, 8] is reported as 65%.
For `CCN1C(=O)C=CC1=O` [N-Ethylmaleimide], the Activity [1, 5] was 1.3 mU/ml, the Relative activity [1, 6] was 3% and the “Effect on enzyme activity (in words)” value [1] was “inhibited”.
`[Ca+2].[Cl-].[Cl-]` [CaCl2] showed an Activity [3, 7] of 31.1 mU/ml and a Relative activity [3, 8] of 97%.
For `O=C1CCC(N2C(=O)c3ccccc3C2=O)C(=O)N1` [L(S)-form, thalidomide], the Teratogenic activity [4] is given as “strong teratogenicity”.
In the case of `O=C(O)c1cc[c]([Hg][Cl])cc1` [p-Chloromercuribenzoic acid], the Activity [1, 5] is reported as 2.1 mU/ml, the Relative activity [1, 6] is reported as 4% and the “Effect on enzyme activity (in words)” value [1] is reported as “inhibited”.
